Key:
cocaine use = test: Cocaine craving in patients with naltrexone implants; type: in vivo, human; conditions: approximately 15 patients, reported by most
Source text: Approximately 15 […] patients have presented specifically for the control of their cocaine use using naltrexone implants. Approximately a third of these patients were from the United Kingdom, a third from Sydney, Australia and a third from Perth, Australia. This group of patients reported a reduction in craving with naltrexone implants, and most reported a reduction in cravings for 6-12 months after receiving the implant. Approximately half returned for repeat implants based on their observations that the naltrexone implant controlled their cravings.

PTSD = PTSD patients treated with flumazenil and/or naltrexone; type: in vivo, human; conditions: severe case, had occurred for 6 years; naltrexone implant inserted
Source text: Post Trauma Stress Disorder (PTSD), causes dysregulation of anxiety control that may damage the GABAA system and present as hypervigilance, sleep disturbance, anxiety, gastrointestinal (GIT) or bladder symptoms. We have been using flumazenil for more than 8 years to treat patients presenting complex. The infusions and implants give relief to the anxiety, sleep disturbance and the GIT symptoms as well as urinary symptoms in many well established PTSD patients.
Sleep remained normal following this. The profound recovery of sleep in patients with PTSD using flumazenil and naltrexone by continuous delivery has not previously been described.

HPA axis = HPA axis in stressed animals; type: in vivo
Source text: For this reason the combination of sustained release naltrexone and sustained release flumazenil using injections, implants or infusions would be expected to limit neuro-inflammatory diseases and their symptoms.

craving for nicotine = test: Nicotine craving and use in patients; type: in vivo, human; conditions: flumazenil by infusion or nasally/sublingually 50 to 200 micrograms per dose
alcohol use = test: Return to alcohol use on naltrexone with or without flumazenil; type: in vivo, human; conditions: naltrexone 2 ng/ml; flumazenil 40 to 160 μg/hour where combined
Description: We have observed that in this group of patients complain of increased irritability, increased anxiety, increased sleep disturbance, and/or increased aggressive behaviour. However, when administered together with flumazenil at a concentration of 40 to 160 μg/hour, these systems are controlled.
For patients with a history of relapse on naltrexone implants, the use of sustained release flumazenil with infusions initially and with a series of sustained release flumazenil implants delivering 40-160 μg/hour to sustain a concentration of 0.5 ng/ml or more appear to be useful in controlling the return to alcohol use. For example, we have shown that in women with a history of irritability and return to drinking in the premenstrual days, this treatment with sustained release flumazenil in combination with naltrexone, reduces craving and relapse patterns.

amphetamine use = test: Amphetamine / methamphetamine craving and withdrawal; type: in vivo, human; conditions: naltrexone implants, plasma concentration maintained at 2 ng/ml or higher
Description: In those patients that return 2-3 weeks with extreme anxiety and a desire to return to amphetamine use, the commencement of flumazenil infusions followed by a flumazenil implant that sustains a plasma concentration of flumazenil at 0.5-2 ng/ml or more decreases the cravings, including a decrease in the desire for amphetamines and allows reduction f irritability and aggression.

cannabis withdrawal = test: Withdrawal from cannabis with high THC concentrations; type: in vivo, human; conditions: naltrexone implants, plasma concentration 0.5 ng/ml to 10 ng/ml or more
Source text: Cannabis use has changed in recent years with a significant cohort describing high tetrahydrocannabinol (THC) concentrations in potent strains which are cultivated for their high THC content. In the patient group using these high concentrations of THC, we have noted that a group of patients give a clear cut history of extreme nausea, vomiting, anxiety changing to serious paranoid thoughts and delusions followed by psychosis over the first 3-5 days of ceasing drug use.
In a severe patient population, ondansetron may be given every 6-8 hours to assist in reducing the nausea and associated anxiety symptoms.
Our results indicated a clear reduction in anxiety, and paranoid symptoms, allowing patients who otherwise would be unable to cope with the symptoms, to cease cannabis use.

SMILES: O=C1CC[C@@]2(O)[C@H]3Cc4ccc(O)c5c4[C@@]2(CCN3CC2CC2)[C@H]1O5 [naltrexone]
- duration of reduction in cravings after receiving the implant (cocaine use): 6-12 months
- waking at 2 am with shouting and anxiety (PTSD): stopped immediately
- return of the HPA axis to normal (HPA axis): help return the HPA axis
- craving for and use of nicotine (craving for nicotine): reduced craving for nicotine
- return to alcohol use (alcohol use): return to drinking alcohol
- craving for amphetamine use (amphetamine use): significant reduction in craving
- cannabis craving and impulse control (cannabis withdrawal): reduces the craving and improves impulse control
